O=C(O)/C=C/c1ccc(O)cc1
solubility (mole fraction)
Settings | in acetone | in ethanol | in ethyl acetate | in isobutanol | in isopropanol | in methanol | in methyl acetate | in n-butanol | in n-propanol
293.15 K | 0.0383 | 0.0409 | 0.0113 | 0.0193 | 0.0294 | 0.036 | 0.0146 | 0.0323 | 0.0334
298.15 K | 0.0428 | 0.0456 | 0.0128 | 0.0226 | 0.0331 | 0.0395 | 0.0176 | 0.0371 | 0.0373
303.15 K | 0.0468 | 0.0507 | 0.0144 | 0.0256 | 0.0373 | 0.0438 | 0.0205 | 0.0432 | 0.0429
308.15 K | 0.0516 | 0.0552 | 0.0162 | 0.0295 | 0.0417 | 0.0484 | 0.0244 | 0.0503 | 0.0478
313.15 K | 0.0574 | 0.0614 | 0.0183 | 0.0332 | 0.0462 | 0.053 | 0.0292 | 0.0582 | 0.0525
318.15 K | 0.0619 | 0.0666 | 0.0205 | 0.0371 | 0.0511 | 0.0573 | 0.034 | 0.0647 | 0.0588
323.15 K | 0.0685 | 0.0725 | 0.0229 | 0.0425 | 0.0562 | 0.063 | 0.0394 | 0.0731 | 0.0652
328.15 K | 0.0756 | 0.0785 | 0.0256 | 0.0483 | 0.0617 | 0.0693 | 0.0457 | 0.0823 | 0.0714
333.15 K | 0.0825 | 0.0861 | 0.0286 | 0.0535 | 0.067 | 0.0757 | 0.0519 | 0.0924 | 0.0791
